{"source": "patent US20250051762A1", "about": "“PLATFORM USING DNA-ENCODED SMALL MOLECULE LIBRARIES AND RNA SELECTION TO DESIGN SMALL MOLECULES THAT TARGET RNA” (University of Florida Research Foundation, Incorporated, priority 2021, published 2025)", "test_system": "3×3 ILL", "assay": "2DCS selection of microarray-immobilized compounds with 32P-labeled 3×3 ILL, Hit-StARTS analysis of RNA-seq", "type": "binding", "conditions": "Zobs >4", "procedure": "The interaction landscape for the ten representative DEL compounds emerging from the FACS screen were then defined by 2DCS (22). In 2DCS, small molecules are site-specifically conjugated to a microarray surface and then probed for binding to an RNA library under highly stringent conditions (FIGS. 2-B & S6). That is, the array is co-incubated with a radioactively labeled RNA library and an excess of competitor oligonucleotides that mimic regions common to all library members. […] To enable site-specific immobilization of compounds 1-10, a C-terminal alkyne handle was installed for CuAAC click (30) coupling to azide-displaying array surfaces. Installation of the alkyne was accomplished by coupling of bromoacetic acid onto rink amide resin followed by nucleophilic displacement with propargylamine prior to the synthesis of the SPDEL compounds (FIG. 2A).\nAll ten compounds bound to the 3×3 ILL under the highly stringent conditions described above, almost all dose-dependently (FIG. 2B). The RNAs bound to each small molecule were harvested, reverse transcribed into DNA, and sequenced by RNA-seq. The resulting data set was statistically analyzed by using High Throughput Structure-Activity Relationships Through Sequencing (Hit-StARTS) (31) in which the relative frequency of each selected RNA is compared to the frequency of that RNA in the starting library (pooled population comparison). (31) The statistical significance of the enrichment of selected RNAs is quantified by Zobs, which correlates with affinity and selectivity. (31) Here, a cut-off of Zobs >4 was employed, which was empirically determined from measured affinities via evaluation of compound 9 binding with potential RNA motifs extracted from the 2DCS (FIGS. 2-B, 13, & 14). […] This cut-off afforded, on average, 60±40 (range: 6-155) preferred, or privileged, RNA 3D folds for each compound. Compound 6 bound to largest number of RNA targets (n=155) while compound 9 bound the fewest (n=6) (FIG. 14). […]"}
{"smiles": "C#CCN(CC(N)=O)C(=O)C[C@H](Cc1c[nH]c2ccccc12)NC(=O)[C@@H]1C[C@H](NC(=O)Cn2c(=O)[nH]c3ccccc3c2=O)CN1", "note": "[Compound 9]", "values": [{"measurement": "number of RNA motifs bound that are unique to the compound", "value": 2}]}
